In patent publication US20180116993A1, “MODULATORS OF FARNESOID X RECEPTOR AND METHODS FOR THE USE THEREOF” (XIAMEN UNIVERSITY, priority 2015, published 2018):
Where two headings read alike, the source gives them in different places. Marks after values point to notes of the source that are not given here.

Columns and labels:
db/db mice = experiment: Hepatic triglyceride, liver histology, serum ALT and ALP in high-fat diet fed db/db mice; format: in vivo, mouse; details: for Hepatic triglyceride (mM/g): vehicle 148 ± 14; for Serum ALP (U/L): vehicle 129 ± 15
Summary of the method: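 High-fat diet fed db/db mice aged 8-10 weeks dosed 10 mg/kg compound once daily for 10 days. Liver sections stained with H&E and 0.3% oil red O; hepatic triglyceride measured by tissue assay kit; serum ALP and ALT activities measured by kit.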

[1] = system: RA-resistant human colon cancer HCT116 cells; experiment: MTT cell viability assay, HCT116; format: cell-based; details: 48 h, read-out: Cell viability as a percentage of the cells treated with DMSO, HCT116; for viability at 20 µM: HCT-116, 20 uM; for viability at 40 µM: HCT-116, 40 uM
Summary of the method: (§1)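 Viability, reported relative to DMSO-treated cells (%), comes from an MTT colorimetric assay after exposure to 20 uM or 40 uM compound. Cells are maintained in DMEM containing 10% fetal bovine serum.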

[2] = molecular target: T1, FXR ligand binding domain (LBD) (Homo sapiens, UniProt Q96RI1); experiment: AlphaScreen assay: FXR LBD recruitment of coregulator peptide motifs (SRC2-3, SRC1-2); format: biochemical; details: Table 2
T1 construct: made in house
T1 sequence (Q96RI1 262-486 limits assumed): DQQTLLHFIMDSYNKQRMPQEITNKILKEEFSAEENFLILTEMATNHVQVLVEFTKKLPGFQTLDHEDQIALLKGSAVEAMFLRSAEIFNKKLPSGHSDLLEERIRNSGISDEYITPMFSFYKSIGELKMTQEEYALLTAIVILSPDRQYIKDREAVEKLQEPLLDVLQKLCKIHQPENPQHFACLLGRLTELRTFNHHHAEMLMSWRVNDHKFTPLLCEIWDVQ

full-length FXR = molecular target: T2, full-length FXR (Homo sapiens, UniProt Q96RI1); experiment: Cell-based FXR transactivation, EcRE luciferase reporter in COS-7 cells; details: Table 2; for Cell-based FXR transactivation Fold changes by 5 μM compound: positive: induction, minus: repression; for EC50: EcRE luciferase reporter
T2 construct: The cells were co-transfected with plasmids encoding full-length FXR and the cognate luciferase reporter EcRE-Luc; expressed in transfected cells; host or cells: COS-7
T2 sequence (Q96RI1 1-486): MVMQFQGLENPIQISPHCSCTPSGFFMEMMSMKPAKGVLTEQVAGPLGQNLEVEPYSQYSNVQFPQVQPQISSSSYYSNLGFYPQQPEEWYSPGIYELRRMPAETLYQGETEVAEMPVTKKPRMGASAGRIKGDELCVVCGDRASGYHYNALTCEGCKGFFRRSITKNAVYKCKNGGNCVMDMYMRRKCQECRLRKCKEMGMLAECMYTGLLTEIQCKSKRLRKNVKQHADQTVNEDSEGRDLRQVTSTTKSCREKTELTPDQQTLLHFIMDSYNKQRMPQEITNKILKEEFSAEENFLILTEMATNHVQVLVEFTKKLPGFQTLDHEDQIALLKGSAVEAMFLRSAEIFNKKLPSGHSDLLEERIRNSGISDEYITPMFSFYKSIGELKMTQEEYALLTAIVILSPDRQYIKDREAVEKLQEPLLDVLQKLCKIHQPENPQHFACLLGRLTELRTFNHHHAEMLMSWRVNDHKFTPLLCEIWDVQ
Summary of the method: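 COS-7 cells were transiently cotransfected with full-length FXR, EcRE-Luc reporter and a renilla control. Ligands were added 5 h after transfection, and cells were harvested 24 h later. Firefly luciferase was normalized to renilla in a dual-luciferase read-out.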

[3] = system: human breast cancer MCF7 cells; experiment: MTT cell viability assay, MCF-7; format: cell-based; details: 48 h, read-out: Cell viability as a percentage of the cells treated with DMSO, MCF-7
Summary of the method: as §1

[4] = system: human colorectal adenocarcinoma HCT15 cells; experiment: MTT cell viability assay, HCT15; format: cell-based; details: 48 h, read-out: Cell viability as a percentage of the cells treated with DMSO, HCT15; for viability at 20 µM: HCT-15, 20 uM; for viability at 40 µM: HCT-15, 40 uM
Summary of the method: as §1

[5] = system: human hepatoma HepG2 cells; experiment: MTT cell viability assay, HepG2; format: cell-based; details: 48 h, read-out: Cell viability as a percentage of the cells treated with DMSO, HepG2
Summary of the method: as §1

[6] = system: human cervical carcinoma Hela cells; experiment: MTT cell viability assay, Hela; format: cell-based; details: 48 h, read-out: Cell viability as a percentage of the cells treated with DMSO, Hela
Summary of the method: as §1

[7] = 10 mg/kg for 10 days, vehicle 377 ± 48, Table 15
[8] = SRC1-2 peptide, read-out: EC50 (μM) of FXR binding by AlphaScreen assay recruit SRC1-2
[9] = SRC2-3 peptide, read-out: EC50 (μM) of FXR binding by AlphaScreen assay recruit SRC2-3
[10] = 10 mg/kg once daily for 10 days
[11] = 10 mg/kg once daily for 10 days, vehicle 377 ± 48, Table 17

Row | SMILES | Hepatic triglyceride (mM/g) (db/db mice; 10 mg/kg for 10 days) | Serum ALT (U/L) (db/db mice; [7]) | viability at 20 µM [1] [%] | viability at 40 µM [1] [%] | EC50 [2, 8] [µM] | EC50 [2, 9] [µM] | Cell-based FXR transactivation Fold changes by 5 μM compound (full-length FXR) | EC50 (full-length FXR) [nM] | viability at 20 µM [3] [%] | viability at 40 µM [3] [%] | viability at 20 µM [4] [%] | viability at 40 µM [4] [%] | viability at 20 µM [5] [%] | viability at 40 µM [5] [%] | viability at 20 µM [6] [%] | viability at 40 µM [6] [%] | Serum ALP (U/L) (db/db mice; [10]) | Serum ALT (U/L) (db/db mice; [11])
1 | O=C(OC1CCC2CCCCC2C1)c1ccc(O)cc1 (stereo not drawn) [XD-28, decahydro-naphthalen-2-yl 4-hydroxy-benzoate] | 87 ± 10 ^c mM/g | 103 ± 17^b U/L | 100 ± 4 | 88 ± 4 | < 0.5 | < 0.5 | 3 | < 1000 | 100 ± 4 | 98 ± 4 | 99 ± 4 | 81 ± 4 | 100 ± 4 | 96 ± 4 | 94 ± 4 | 92 ± 4 |  | 
2 | COc1cc(C(=O)OC2CCCCCCC2)ccc1O [XD-18, cyclooctyl 4-hydroxy-3-methoxybenzoate] |  |  | 92 ± 1 | 30 ± 2 | < 1 | < 1 | 3 | < 1000 | 98 ± 10 | 32 | 91 ± 4 | 40 ± 4 | 96 ± 3 | 55 ± 1 | 100 ± 3 | 71 ± 3 | 77 ± 9^c U/L | 129 ± 19^b U/L
3 | O=C(OC1CCCCCCCCCCC1)c1ccc(O)cc1 [XD-11, cyclododecyl 4-hydroxybenzoate] | 102 ± 13 ^a mM/g | 106 ± 26 ^a U/L | 92 ± 2 | 70 ± 7 | 1 to 10 | 1 to 10 | 4 | 1000 to 10000 | 100 ± 7 | 100 ± 2 | 89 ± 2 | 78 ± 3 | 100 ± 1 | 97 ± 1 | 100 ± 3 | 100 ± 2 |  | 
4 | Cc1cc(C(=O)OC2CCC3CCCCC3C2)ccc1O (stereo not drawn) [XD-29, decahydro-naphthalen-2-yl 4-hydroxy-3-methylbenzoate] | 116 ± 11 ^a mM/g | 101 ± 46^b U/L | 100 ± 2 | 96 ± 2 | < 0.5 | < 0.5 | 3 | < 1000 | 100 ± 2 | 88 | 72 ± 2 | 52 ± 2 | 100 ± 2 | 98 ± 2 | 96 ± 2 | 90 ± 2 | 69 ± 9^c U/L | 101 ± 46^b U/L
5 | Nc1ccc(C(=O)OC2CCCCCC2)cc1 [XD-12, cycloheptyl 4-aminobenzoate] | 103 ± 20 ^a mM/g | 199 ± 37 ^a U/L | 77 ± 3 | 65 ± 3 | > 10 | > 10 | 1.5 |  | 100 ± 4 | 82 | 65 ± 4 | 54 ± 4 | 100 ± 2 | 97 ± 3 | 100 ± 2 | 90 ± 5 |  | 
6 | CC1(C)C2CCC1(C)C(OC(=O)c1ccc(F)cc1)C2 (stereo not drawn) [XD-0, 1,7,7-trimethyl-bicyclo[2.2.1]-heptan-2-yl 4-fluorobenzoate] | 91 ± 22 ^a mM/g | 106 ± 22 ^a U/L | 95 ± 4 | 62 ± 6 | 1 to 10 | 1 to 10 | 5 | 1000 to 10000 | 100 ± 2 | 85 | 81 ± 4 | 56 ± 2 | 81 ± 2 | 76 ± 7 | 90 | 71 ± 3 |  | 
7 | COc1cc(C(=O)OC2CCC3CCCCC3C2)ccc1O (stereo not drawn) [XD-30, decahydro-naphthalen-2-yl 4-hydroxy-3-methoxybenzoate] | 108 ± 8 ^c mM/g | 92 ± 27 ^a U/L | 100 ± 2 | 100 ± 2 | < 0.5 | < 0.5 | 3 | < 1000 | 100 ± 2 | 92 ± 2 | 96 ± 2 | 77 ± 2 | 100 ± 2 | 94 ± 2 | 81 | 79 ± 2 | 64 ± 14^a U/L | 92 ± 27^a U/L
8 | CC1(C)C2CCC1(C)C(OC(=O)C1CCC(O)CC1)C2 (stereo not drawn) [XD-20, 1,7,7-trimethyl-bicyclo[2.2.1]-heptan-2-yl 4-hydroxy-cyclohexane-carboxylate] | 60 ± 15^b mM/g | 115 ± 29 ^a U/L | 79 ± 2 | 70 ± 7 | 1 to 10 | 1 to 10 | 6 | 1000 to 10000 | 85 | 82 ± 1 | 100 ± 4 | 84 ± 4 | 100 ± 5 | 100 ± 2 | 100 ± 5 | 96 ± 1 | 73 ± 19^a U/L | 115 ± 29^a U/L
9 | CC1(C)C2CCC1(C)C(OC(=O)c1ccc(=O)oc1)C2 (stereo not drawn) [XD-9, 1,7,7-trimethyl-bicyclo[2.2.1]-heptan-2-yl 6-oxo-6H-pyran-3-carboxylate] | 93 ± 14 ^a mM/g | 121 ± 33 ^a U/L | 58 ± 2 | 25 ± 2 | 1 to 10 | 1 to 10 | 4 | 1000 to 10000 | 72 ± 6 | 31 | 49 ± 2 | 42 ± 3 | 90 ± 3 | 64 ± 3 | 80 ± 3 | 59 ± 5 |  | 
10 | CC1(C)C2CCC1(C)C(OC(=O)c1ccc(=O)[nH]c1)C2 (stereo not drawn) [XD-8, 1,7,7-trimethyl-bicyclo[2.2.1]-heptan-2-yl 6-oxo-1,6-dihydropyridine-3-carboxylate] | 102 ± 8 ^c mM/g | 115 ± 31 ^a U/L | 92 ± 7 | 60 ± 3 | 1 to 10 | 1 to 10 | 4 | 1000 to 10000 | 94 ± 10 | 75 | 78 ± 4 | 60 ± 4 | 90 | 64 ± 3 | 97 | 71 ± 3 |  | 
